Numbered stars: 1 amine (or outer) side, 2 acyl side, 3 side chain; on linkers, the order of the positions; unused ones are H or OH. Square brackets hold non-standard residues; d marks the D form. Peptide text beside a SMILES is read from it. * marks the point of attachment. X4 = COC(=O)C1OC(O[C@@H](c2ccccc2)[C@@H](C)N*)C(OC(C)=O)C(OC(C)=O)C1OC(C)=O; Dolaproine = CO[C@@H]([C@@H]1CCCN1)[C@@H](C)C(=O)O; Hexanoyl(6-maleimido) = O=C1C=CC(=O)N1CCCCCC(=O)*; Propanoyl(3-maleimido) = O=C1C=CC(=O)N1CCC(=O)*; Dil = CC[C@H](C)[C@H](NC)[C@@H](CC(=O)O)OC; X3 = C[C@@H](N*)[C@@H](OP(=O)(O)O)c1ccccc1; PABC = O=C(OCc1ccc(N[*:1])cc1)[*:2]; X1 = C[C@@H](N*)[C@@H](O)c1ccccc1; hSer(lactone) = O=C1OCC[C@@H]1N*; Cit = NC(=O)NCCC[C@H](N)C(=O)O; PEG4 = NCCOCCOCCOCCOCCC(=O)O; NMeV = CN[C@H](C(=O)O)C(C)C
Target: T1, porcine tubulin (Sus scrofa, UniProt P02550+P02554)
T1 construct: purchased Cytoskeleton, Inc. BK011P
Test: Tubulin polymerization inhibition test
Assay type: biochemical
Settings: fluorescence, 37° C., 60 minutes
Protocol: For measuring the tubulin polymerization inhibitory action, Tubulin Polymerization Assay Kit (manufactured by Cytoskeleton, Inc., BK011P) was used. A PIPES buffer containing porcine tubulin, GTP, MgCl2, EGTA, Glycerol, and a fluorescent reporter was prepared under ice-cooling as a reaction solution. The reaction solution was ice-cooled until it was used. A test compound solution was prepared by an aqueous solution containing 1.5% DMSO, and added to a 96 well plate (manufactured by Corning Inc., 3686) at 5 μL/well. The reaction solution was added thereto at 50 μL/well, the plate was placed in a microplate reader (FlexStation 3, manufactured by Molecular Device, LLC) in which the internal temperature was set to 37° C. in advance, and the fluorescence intensity measurement (excitation wavelength: 360 nm, detection wavelength: 420 nm) of each well was started. The fluorescence intensity was measured once every minute, and the measurement was continued for 60 minutes.
The tubulin polymerization inhibition rate (%) was calculated by the following equation.
Amount of fluorescence intensity increase: (average fluorescence intensity after 51 to 60 minutes from measurement start)−(average fluorescence intensity after 1 to 6 minutes from measurement start)

T1 sequence (P02554 whole entry): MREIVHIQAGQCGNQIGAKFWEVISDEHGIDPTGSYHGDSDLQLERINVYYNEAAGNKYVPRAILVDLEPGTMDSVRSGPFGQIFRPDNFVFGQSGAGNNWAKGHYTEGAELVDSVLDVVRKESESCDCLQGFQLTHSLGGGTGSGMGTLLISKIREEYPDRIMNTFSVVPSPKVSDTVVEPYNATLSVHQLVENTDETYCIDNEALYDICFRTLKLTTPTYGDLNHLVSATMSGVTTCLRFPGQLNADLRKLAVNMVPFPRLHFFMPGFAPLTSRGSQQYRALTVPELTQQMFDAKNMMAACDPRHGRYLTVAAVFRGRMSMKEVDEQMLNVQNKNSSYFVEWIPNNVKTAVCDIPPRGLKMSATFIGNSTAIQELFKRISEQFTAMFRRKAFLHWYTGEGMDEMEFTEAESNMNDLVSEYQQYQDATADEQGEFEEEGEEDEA
T1 sequence (P02550 whole entry): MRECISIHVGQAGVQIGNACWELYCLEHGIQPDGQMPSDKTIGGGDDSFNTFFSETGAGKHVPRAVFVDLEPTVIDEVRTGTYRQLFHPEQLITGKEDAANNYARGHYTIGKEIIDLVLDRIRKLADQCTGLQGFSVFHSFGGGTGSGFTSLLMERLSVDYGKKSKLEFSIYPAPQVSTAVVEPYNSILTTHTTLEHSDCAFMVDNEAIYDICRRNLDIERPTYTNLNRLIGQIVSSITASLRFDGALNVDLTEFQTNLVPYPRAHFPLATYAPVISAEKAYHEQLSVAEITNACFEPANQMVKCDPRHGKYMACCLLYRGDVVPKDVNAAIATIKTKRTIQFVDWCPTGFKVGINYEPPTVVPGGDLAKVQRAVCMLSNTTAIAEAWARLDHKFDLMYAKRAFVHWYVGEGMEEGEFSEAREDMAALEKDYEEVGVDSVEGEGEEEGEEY

| SMILES | IC50 [µM] |
| --- | --- |
| CC[C@H](C)[C@@H]([C@@H](CC(=O)N1CCC[C@H]1[C@H](OC)[C@@H](C)C(=O)N[C@H](C)[C@@H](O)c1ccccc1)OC)N(C)C(=O)[C@@H](NC(=O)[C@H](C(C)C)N(C)Cc1cc([N+](=O)[O-])ccc1F)C(C)C [Example U-008] | ≤ 3 |
| CC[C@H](C)[C@@H]([C@@H](CC(=O)N1CCC[C@H]1[C@H](OC)[C@@H](C)C(=O)N[C@H](C)[C@@H](OC1OC(C(=O)OC)C(OC(C)=O)C(OC(C)=O)C1OC(C)=O)c1ccccc1)OC)N(C)C(=O)[C@@H](NC(=O)[C@@H](NC)C(C)C)C(C)C (some centres unmarked) [Example U-014] (H-[NMeV]V[Dil][Dolaproine]-X4) | ≤ 3 |

Test system: not listed separately
Test: Retention time in HPLC of reactive precursor (index of hydrophilicity)
Assay type: physicochemical
Settings: BEH C18, 0.1% formic acid water/acetonitrile gradient, 40° C.
Protocol: As an index of hydrophilicity of the reactive precursor (Compound (III)), the retention time (RT) in HPLC analysis was measured, and compared.

| SMILES | Retention time in HPLC measurement [min] |
| --- | --- |
| CC[C@H](C)[C@@H]([C@@H](CC(=O)N1CCC[C@H]1C(OC)[C@@H](C)C(=O)N[C@H](C)[C@@H](O)c1ccccc1)OC)N(C)C(=O)[C@@H](NC(=O)[C@H](C(C)C)N(C)C(=O)OCc1ccc(NC(=O)[C@H](CCCNC(N)=O)NC(=O)[C@@H](NC(=O)[C@H](CC(=O)NC2CCOC2=O)NC(=O)[C@H](CC(=O)N[C@H]2CCOC2=O)NC(=O)[C@H](CC(=O)N[C@H]2CCOC2=O)NC(=O)[C@H](CC(=O)N[C@H]2CCOC2=O)NC(=O)[C@H](CC(=O)NC2CCOC2=O)NC(=O)CCOCCOCCOCCOCCNC(=O)CCN2C(=O)C=CC2=O)C(C)C)cc1)C(C)C (stereo in doubt) [Reference Example 6] | 1.09 |
| CC[C@H](C)[C@@H]([C@@H](CC(=O)N1CCC[C@H]1[C@H](OC)[C@@H](C)C(=O)N[C@H](C)[C@@H](O)c1ccccc1)OC)N(C)C(=O)[C@@H](NC(=O)[C@H](C(C)C)N(C)C(=O)OCc1ccc(NC(=O)[C@H](CCCNC(N)=O)NC(=O)[C@@H](NC(=O)CCCCCN2C(=O)C=CC2=O)C(C)C)cc1)C(C)C [MC-Val-Cit-PAB-MMAE, reference compound] ({Hexanoyl(6-maleimido)}-V[Cit][PABC][NMeV]V[Dil][Dolaproine]-X1) | 1.24 |
| C=C1C[C@@H]2CC[C@@]34C[C@H]5O[C@H]6[C@@H](O3)[C@H]3O[C@H](CC[C@@H]3O[C@H]6[C@H]5O4)CC(=O)C[C@@H]3[C@@H](OC)[C@@H](C[C@H](O)CNC(=O)OCc4ccc(NC(=O)[C@H](CCCNC(N)=O)NC(=O)[C@@H](NC(=O)CCOCCOCCN5C(=O)C=CC5=O)C(C)C)cc4)O[C@H]3C[C@H]3O[C@@H](CC[C@@H]1O2)C[C@@H](C)C3=C [Mal-PEG2-Val-Cit-PAB-Eribulin, reference compound] | 1.19 |
| CC[C@H](C)[C@@H]([C@@H](CC(=O)N1CCC[C@H]1[C@H](OC)[C@@H](C)C(=O)N[C@H](C)[C@@H](OP(=O)(O)O)c1ccccc1)OC)N(C)C(=O)[C@@H](NC(=O)[C@H](C(C)C)N(C)C(=O)OCc1ccc(NC(=O)[C@H](CCCNC(N)=O)NC(=O)[C@@H](NC(=O)[C@H](CC(=O)N[C@H]2CCOC2=O)NC(=O)CCOCCOCCOCCOCCNC(=O)CCN2C(=O)C=CC2=O)C(C)C)cc1)C(C)C [Reference Example 2] ({Propanoyl(3-maleimido)-PEG4}-D(hSer(lactone))V[Cit][PABC][NMeV]V[Dil][Dolaproine]-X3) | 0.96 |
| CC[C@H](C)[C@@H]([C@@H](CC(=O)N1CCC[C@H]1[C@H](OC)[C@@H](C)C(=O)N[C@H](C)[C@@H](OP(=O)(O)OCc1ccc(NC(=O)[C@H](CCCNC(N)=O)NC(=O)[C@@H](NC(=O)[C@H](CC(=O)N[C@H]2CCOC2=O)NC(=O)CCOCCOCCOCCOCCNC(=O)[C@H](CNC(=O)CCP(=O)(O)O)N2C(=O)C=CC2=O)C(C)C)cc1)c1ccccc1)OC)N(C)C(=O)[C@@H](NC(=O)[C@H](C(C)C)N(C)C)C(C)C [Reference Example 3] | 0.70 |
| C=C1C[C@@H]2CC[C@@]34C[C@H]5O[C@H]6[C@@H](O3)[C@H]3O[C@H](CC[C@@H]3O[C@H]6[C@H]5O4)CC(=O)C[C@@H]3[C@@H](OC)[C@@H](C[C@@H](CCNC(=O)OCc4ccc(NC(=O)[C@H](CCCNC(N)=O)NC(=O)[C@@H](NC(=O)[C@H](CC(=O)N[C@H]5CCOC5=O)NC(=O)CCOCCOCCOCCOCCNC(=O)[C@H](CNC(=O)CCP(=O)(O)O)N5C(=O)C=CC5=O)C(C)C)cc4)OP(=O)(O)O)O[C@H]3C[C@H]3O[C@@H](CC[C@@H]1O2)C[C@@H](C)C3=C [Reference Example 26] | 0.91 |
